Measurements published in ChEMBL document CHEMBL4715697, “Synthesis and biological activity of benzamide DNA minor groove binders” (2016).

Key:
Assay type in all cases: functional
[1] = tested on: UACC-257; assay: Growth inhibition of human UACC-257 cells assessed as cell growth at 1 uM incubated for 48 hrs by sulforhodamine B assay relative to control; conditions: read-out: Activity
[2] = tested on: U-251; assay: Growth inhibition of human U-251 cells assessed as cell growth at 1 uM incubated for 48 hrs by sulforhodamine B assay relative to control; conditions: read-out: Activity
[3] = tested on: SF-295; assay: Growth inhibition of human SF-295 cells assessed as cell growth at 0.1 uM incubated for 48 hrs by sulforhodamine B assay relative to control; conditions: read-out: Activity
[4] = tested on: OVCAR-4; assay: Growth inhibition of human OVCAR-4 cells assessed as cell growth at 0.1 uM incubated for 48 hrs by sulforhodamine B assay relative to control; conditions: read-out: Activity
[5] = tested on: EKVX; assay: Growth inhibition of human EKVX cells assessed as cell growth at 0.1 uM incubated for 48 hrs by sulforhodamine B assay relative to control; conditions: read-out: Activity
[6] = tested on: UACC-257; assay: Growth inhibition of human UACC-257 cells assessed as cell growth at 0.1 uM incubated for 48 hrs by sulforhodamine B assay relative to control; conditions: read-out: Activity
[7] = tested on: BT-549; assay: Growth inhibition of human BT-549 cells assessed as cell growth at 0.1 uM incubated for 48 hrs by sulforhodamine B assay relative to control; conditions: read-out: Activity
[8] = tested on: COLO 205; assay: Growth inhibition of human COLO 205 cells assessed as cell growth at 100 uM incubated for 48 hrs by sulforhodamine B assay relative to control; conditions: read-out: Activity
[9] = tested on: NCI-H522; assay: Growth inhibition of human NCI-H522 cells incubated for 48 hrs by sulforhodamine B assay
[10] = tested on: SW-620; assay: Growth inhibition of human SW-620 cells assessed as cell growth at 1 uM incubated for 48 hrs by sulforhodamine B assay relative to control; conditions: read-out: Activity
[11] = tested on: SF-539; assay: Growth inhibition of human SF-539 cells assessed as cell growth at 0.1 uM incubated for 48 hrs by sulforhodamine B assay relative to control; conditions: read-out: Activity
[12] = tested on: OVCAR-3; assay: Growth inhibition of human OVCAR-3 cells assessed as cell growth at 100 uM incubated for 48 hrs by sulforhodamine B assay relative to control; conditions: read-out: Activity
[13] = tested on: NCI-H322M; assay: Growth inhibition of human NCI-H322M cells assessed as cell growth at 0.01 uM incubated for 48 hrs by sulforhodamine B assay relative to control; conditions: read-out: Activity
[14] = tested on: OVCAR-3; assay: Growth inhibition of human OVCAR-3 cells incubated for 48 hrs by sulforhodamine B assay
[15] = tested on: Hs-578T; assay: Growth inhibition of human Hs-578T cells assessed as cell growth at 0.01 uM incubated for 48 hrs by sulforhodamine B assay relative to control; conditions: read-out: Activity
[16] = tested on: 786-0; assay: Growth inhibition of human 786-0 cells assessed as cell growth at 0.01 uM incubated for 48 hrs by sulforhodamine B assay relative to control; conditions: read-out: Activity
[17] = tested on: RXF 393; assay: Growth inhibition of human RXF 393 cells incubated for 48 hrs by sulforhodamine B assay
[18] = tested on: NCI-H460; assay: Growth inhibition of human NCI-H460 cells incubated for 48 hrs by sulforhodamine B assay
[19] = tested on: MDA-MB-468; assay: Growth inhibition of human MDA-MB-468 cells assessed as cell growth at 100 uM incubated for 48 hrs by sulforhodamine B assay relative to control; conditions: read-out: Activity
[20] = tested on: A549; assay: Growth inhibition of human A549/ATCC cells incubated for 48 hrs by sulforhodamine B assay
[21] = tested on: SK-OV-3; assay: Growth inhibition of human SK-OV-3 cells assessed as cell growth at 0.01 uM incubated for 48 hrs by sulforhodamine B assay relative to control; conditions: read-out: Activity
[22] = tested on: NCI-H226; assay: Growth inhibition of human NCI-H226 cells assessed as cell growth at 100 uM incubated for 48 hrs by sulforhodamine B assay relative to control; conditions: read-out: Activity
[23] = tested on: MDA-MB-435; assay: Growth inhibition of human MDA-MB-435 cells assessed as cell growth at 0.01 uM incubated for 48 hrs by sulforhodamine B assay relative to control; conditions: read-out: Activity
[24] = tested on: NCI-H226; assay: Growth inhibition of human NCI-H226 cells assessed as cell growth at 0.01 uM incubated for 48 hrs by sulforhodamine B assay relative to control; conditions: read-out: Activity
[25] = tested on: SF-539; assay: Growth inhibition of human SF-539 cells assessed as cell growth at 1 uM incubated for 48 hrs by sulforhodamine B assay relative to control; conditions: read-out: Activity
[26] = tested on: HCC 2998; assay: Growth inhibition of human HCC 2998 cells assessed as cell growth at 0.01 uM incubated for 48 hrs by sulforhodamine B assay relative to control; conditions: read-out: Activity
[27] = tested on: HCT-15; assay: Growth inhibition of human HCT-15 cells incubated for 48 hrs by sulforhodamine B assay
[28] = tested on: DU-145; assay: Growth inhibition of human DU-145 cells assessed as cell growth at 100 uM incubated for 48 hrs by sulforhodamine B assay relative to control; conditions: read-out: Activity
[29] = tested on: OVCAR-8; assay: Growth inhibition of human OVCAR-8 cells assessed as cell growth at 1 uM incubated for 48 hrs by sulforhodamine B assay relative to control; conditions: read-out: Activity
[30] = tested on: NCI/ADR-RES; assay: Growth inhibition of human NCI/ADR-RES cells assessed as cell growth at 1 uM incubated for 48 hrs by sulforhodamine B assay relative to control; conditions: read-out: Activity
[31] = tested on: 786-0; assay: Growth inhibition of human 786-0 cells assessed as cell growth at 1 uM incubated for 48 hrs by sulforhodamine B assay relative to control; conditions: read-out: Activity
[32] = tested on: IGROV-1; assay: Growth inhibition of human IGROV-1 cells assessed as cell growth at 1 uM incubated for 48 hrs by sulforhodamine B assay relative to control; conditions: read-out: Activity
[33] = tested on: SR; assay: Growth inhibition of human SR cells assessed as cell growth at 0.01 uM incubated for 48 hrs by sulforhodamine B assay relative to control; conditions: read-out: Activity
[34] = tested on: M14; assay: Growth inhibition of human M14 cells assessed as cell growth at 0.01 uM incubated for 48 hrs by sulforhodamine B assay relative to control; conditions: read-out: Activity
[35] = tested on: HCT-116; assay: Growth inhibition of human HCT-116 cells assessed as cell growth at 1 uM incubated for 48 hrs by sulforhodamine B assay relative to control; conditions: read-out: Activity
[36] = read-out: LC50 (the source's name)
[37] = read-out: pLC50 (the source's name) (converted)

With CC(=O)Nc1cc(CCl)cc(NC(=O)c2ccc(C(=O)Nc3cccc(NC(=O)CCCN(C)C)c3)cc2)c1 the growth at 1 µM [1] was 95%, the growth at 1 µM [2] was 93% and the growth at 0.1 µM [3] was 74%. The growth at 0.1 µM [4] was 94%, the growth at 0.1 µM [5] was 87% and the growth at 0.1 µM [6] was 93%. It also gave a growth at 0.1 µM [7] of 103%, a growth at 100 µM [8] of 100% and a GI50 ([9]; read-out: GI50) of over 100 µM. The CC50 [9, 36] was over 100 µM, the TGI ([9]; read-out: TGI) was over 100 µM and the GI50 ([9]; read-out: pGI50 (converted)) was over 100 µM. For the same molecule, the CC50 [9, 37] was over 100 µM, the TGI ([9]; read-out: pTGI) was over 100 µM and the growth at 1 µM [10] was 107%. The growth at 0.1 µM [11] was 103%, the growth at 100 µM [12] was 105% and the growth at 0.01 µM [13] was 106%. The GI50 ([14]; read-out: GI50) was over 100 µM, the LC50 (50% lethal concentration) ([14]; read-out: LC50) was over 100 µM and the TGI ([14]; read-out: TGI) was over 100 µM. For the same molecule, the GI50 ([14]; read-out: pGI50 (converted)) was over 100 µM, the LC50 (50% lethal concentration) ([14]; read-out: pLC50 (converted)) was over 100 µM and the TGI ([14]; read-out: pTGI) was over 100 µM. The growth at 0.01 µM [15] was 115%, the growth at 0.01 µM [16] was 106% and the GI50 ([17]; read-out: GI50) was over 100 µM. The CC50 [17, 36] was over 100 µM, the TGI ([17]; read-out: TGI) was over 100 µM and the GI50 ([17]; read-out: pGI50 (converted)) was over 100 µM. It also gave a CC50 [17, 37] of over 100 µM, a TGI ([17]; read-out: pTGI) of over 100 µM and a GI50 ([18]; read-out: GI50) of over 100 µM. It also gave a CC50 [18, 36] of over 100 µM, a TGI ([18]; read-out: TGI) of over 100 µM and a GI50 ([18]; read-out: pGI50 (converted)) of over 100 µM. For the same molecule, the CC50 [18, 37] was over 100 µM, the TGI ([18]; read-out: pTGI) was over 100 µM and the growth at 100 µM [19] was 51%. For the same molecule, the GI50 ([20]; read-out: GI50) was over 100 µM, the CC50 [20, 36] was over 100 µM and the TGI ([20]; read-out: TGI) was over 100 µM. The GI50 ([20]; read-out: pGI50 (converted)) was over 100 µM, the CC50 [20, 37] was over 100 µM and the TGI ([20]; read-out: pTGI) was over 100 µM. It also gave a growth at 0.01 µM [21] of 106%, a growth at 100 µM [22] of 87% and a growth at 0.01 µM [23] of 96%. The growth at 0.01 µM [24] was 95%, the growth at 1 µM [25] was 104% and the growth at 0.01 µM [26] was 102%. The GI50 ([27]; read-out: GI50) was over 100 µM, the CC50 [27, 36] was over 100 µM and the TGI ([27]; read-out: TGI) was over 100 µM. It also gave a GI50 ([27]; read-out: pGI50 (converted)) of over 100 µM, a CC50 [27, 37] of over 100 µM and a TGI ([27]; read-out: pTGI) of over 100 µM. It also gave a growth at 100 µM [28] of 94%, a growth at 1 µM [29] of 101% and a growth at 1 µM [30] of 95%. For the same molecule, the growth at 1 µM [31] was 105%, the growth at 1 µM [32] was 110% and the growth at 0.01 µM [33] was 96%. For the same molecule, the growth at 0.01 µM [34] was 108% and the growth at 1 µM [35] was 107%.
